# Assay results reported in patent US11045455B2, “Azetidine derivative, preparation method therefor, and use thereof” (SICHUAN KELUN-BIOTECH BIOPHARMACEUTICAL CO., LTD., priority 2016, dated 2021).
# Counter-ions that a name gives are not always drawn. Like-named read-outs stand apart in the source and are kept apart here.
# Experiments:
# CYP1A2 = CYP1A2 (Homo sapiens (Human), UniProt P05177); assay: CYP450 enzyme test, P450-Glo screening system, CYP1A2; format: in vitro ADME; conditions: read-out: IC50 (μM) CYP1A2
# Description: (§1) CYP450 is the most important enzymatic system in drug metabolism. The enzymes involved in the metabolism interact with a drug, and mainly include CYP1A2, CYP2D6 and CYP3A4. In the CYP450 enzyme test, P450-Glo™ CYP1A2 screening system was employed to determine the inhibitory activity of compounds on CYP1A2 and CYP3A4. The Vivid® CYP2D6 Cyan screening kit was employed to determine the inhibitory activity of test compounds on CYP2D6.
# JAK1 = JAK1 (Homo sapiens (Human), UniProt P23458); assay: JAK1 enzymatic inhibition assay (ADP-Glo luminescence); format: biochemical
# Chain of JAK1 (P23458 whole entry): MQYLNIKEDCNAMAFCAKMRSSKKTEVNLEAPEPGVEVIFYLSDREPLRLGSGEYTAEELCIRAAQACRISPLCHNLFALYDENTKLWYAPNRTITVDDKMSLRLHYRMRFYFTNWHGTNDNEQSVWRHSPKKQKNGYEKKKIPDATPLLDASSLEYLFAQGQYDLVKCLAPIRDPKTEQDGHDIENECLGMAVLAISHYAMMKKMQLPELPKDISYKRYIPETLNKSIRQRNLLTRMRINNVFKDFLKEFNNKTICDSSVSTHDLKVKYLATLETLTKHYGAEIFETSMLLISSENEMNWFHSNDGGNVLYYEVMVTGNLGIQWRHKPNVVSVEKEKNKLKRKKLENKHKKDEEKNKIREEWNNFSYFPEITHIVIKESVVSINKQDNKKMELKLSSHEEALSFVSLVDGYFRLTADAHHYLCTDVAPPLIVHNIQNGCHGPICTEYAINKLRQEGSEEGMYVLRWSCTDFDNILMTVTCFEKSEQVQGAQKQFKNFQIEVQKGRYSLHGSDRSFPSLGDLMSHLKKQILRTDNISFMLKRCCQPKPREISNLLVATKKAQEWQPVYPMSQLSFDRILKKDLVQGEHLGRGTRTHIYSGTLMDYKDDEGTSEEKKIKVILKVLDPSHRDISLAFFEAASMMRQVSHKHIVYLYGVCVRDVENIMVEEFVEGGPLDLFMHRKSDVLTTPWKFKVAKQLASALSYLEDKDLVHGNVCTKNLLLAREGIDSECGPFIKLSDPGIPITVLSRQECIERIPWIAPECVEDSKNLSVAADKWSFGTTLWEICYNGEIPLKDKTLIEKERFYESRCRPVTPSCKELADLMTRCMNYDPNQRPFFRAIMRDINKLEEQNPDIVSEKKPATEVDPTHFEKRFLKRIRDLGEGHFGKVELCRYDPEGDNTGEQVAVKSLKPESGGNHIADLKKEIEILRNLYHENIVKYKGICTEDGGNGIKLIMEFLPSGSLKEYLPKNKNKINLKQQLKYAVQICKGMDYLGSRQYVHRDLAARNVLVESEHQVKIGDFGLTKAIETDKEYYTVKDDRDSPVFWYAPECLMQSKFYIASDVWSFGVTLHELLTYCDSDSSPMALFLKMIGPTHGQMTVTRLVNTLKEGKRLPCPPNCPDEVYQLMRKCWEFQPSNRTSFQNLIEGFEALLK
# Procedure: (§3) Test Materials • JAK1, JAK2, JAK3 and TYK2 enzymes were purchased from Life Technologies; and substrate GFP-STAT1 was purchased from Life Technologies.
# (§4) Test compounds, enzymes, the substrate and ATP were diluted to the desired concentrations with the assay buffer (40 mM Tris-HCl, pH 7.4, 20 mM MgCl2, 0.1% BSA). The former three were added into a multiple well plate, and incubated at room temperature after being mixed homogeneously. ATP was added to initiate the kinase reaction, and incubation at room temperature was performed. ADP-Glo was added, and incubation at room temperature was performed. The kinase detector reagent was then added, and incubation at room temperature was performed. The luminescence intensity of each test group was detected, and the half maximal inhibitory concentration (IC50) value was calculated.
# CYP3A4 = CYP3A4 (Homo sapiens (Human), UniProt P08684); assay: CYP450 enzyme test, P450-Glo screening system, CYP3A4; format: in vitro ADME
# Description: as §1
# CYP2D6 = CYP2D6 (Homo sapiens (Human), UniProt P10635); assay: CYP450 enzyme test, Vivid CYP2D6 Cyan screening kit; format: in vitro ADME
# Chain of CYP2D6 (P10635 whole entry): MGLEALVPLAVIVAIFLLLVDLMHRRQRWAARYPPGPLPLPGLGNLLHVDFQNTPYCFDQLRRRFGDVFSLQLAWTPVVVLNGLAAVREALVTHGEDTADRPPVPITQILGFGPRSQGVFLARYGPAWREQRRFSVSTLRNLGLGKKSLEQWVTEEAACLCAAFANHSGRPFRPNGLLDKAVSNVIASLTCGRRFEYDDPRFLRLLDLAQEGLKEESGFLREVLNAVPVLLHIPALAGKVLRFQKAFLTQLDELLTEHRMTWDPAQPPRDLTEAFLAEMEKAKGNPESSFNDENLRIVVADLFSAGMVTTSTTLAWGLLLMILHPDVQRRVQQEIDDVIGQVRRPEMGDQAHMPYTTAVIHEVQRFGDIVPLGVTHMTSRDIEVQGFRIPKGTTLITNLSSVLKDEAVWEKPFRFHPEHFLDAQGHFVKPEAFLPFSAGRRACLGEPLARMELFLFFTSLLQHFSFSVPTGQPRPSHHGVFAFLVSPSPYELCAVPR
# Description: as §1
# JAK2 = JAK2 (Homo sapiens (Human), UniProt O60674); assay: JAK2 enzymatic inhibition assay (ADP-Glo luminescence); format: biochemical
# Procedure: as §3, §4
# hERG potassium channel = hERG potassium channel (Homo sapiens (Human), UniProt Q12809); assay: Predictor hERG Fluorescence Polarization Assay; format: binding; conditions: tested at 3, 10 and 30 μM
# Chain of hERG potassium channel (Q12809 whole entry): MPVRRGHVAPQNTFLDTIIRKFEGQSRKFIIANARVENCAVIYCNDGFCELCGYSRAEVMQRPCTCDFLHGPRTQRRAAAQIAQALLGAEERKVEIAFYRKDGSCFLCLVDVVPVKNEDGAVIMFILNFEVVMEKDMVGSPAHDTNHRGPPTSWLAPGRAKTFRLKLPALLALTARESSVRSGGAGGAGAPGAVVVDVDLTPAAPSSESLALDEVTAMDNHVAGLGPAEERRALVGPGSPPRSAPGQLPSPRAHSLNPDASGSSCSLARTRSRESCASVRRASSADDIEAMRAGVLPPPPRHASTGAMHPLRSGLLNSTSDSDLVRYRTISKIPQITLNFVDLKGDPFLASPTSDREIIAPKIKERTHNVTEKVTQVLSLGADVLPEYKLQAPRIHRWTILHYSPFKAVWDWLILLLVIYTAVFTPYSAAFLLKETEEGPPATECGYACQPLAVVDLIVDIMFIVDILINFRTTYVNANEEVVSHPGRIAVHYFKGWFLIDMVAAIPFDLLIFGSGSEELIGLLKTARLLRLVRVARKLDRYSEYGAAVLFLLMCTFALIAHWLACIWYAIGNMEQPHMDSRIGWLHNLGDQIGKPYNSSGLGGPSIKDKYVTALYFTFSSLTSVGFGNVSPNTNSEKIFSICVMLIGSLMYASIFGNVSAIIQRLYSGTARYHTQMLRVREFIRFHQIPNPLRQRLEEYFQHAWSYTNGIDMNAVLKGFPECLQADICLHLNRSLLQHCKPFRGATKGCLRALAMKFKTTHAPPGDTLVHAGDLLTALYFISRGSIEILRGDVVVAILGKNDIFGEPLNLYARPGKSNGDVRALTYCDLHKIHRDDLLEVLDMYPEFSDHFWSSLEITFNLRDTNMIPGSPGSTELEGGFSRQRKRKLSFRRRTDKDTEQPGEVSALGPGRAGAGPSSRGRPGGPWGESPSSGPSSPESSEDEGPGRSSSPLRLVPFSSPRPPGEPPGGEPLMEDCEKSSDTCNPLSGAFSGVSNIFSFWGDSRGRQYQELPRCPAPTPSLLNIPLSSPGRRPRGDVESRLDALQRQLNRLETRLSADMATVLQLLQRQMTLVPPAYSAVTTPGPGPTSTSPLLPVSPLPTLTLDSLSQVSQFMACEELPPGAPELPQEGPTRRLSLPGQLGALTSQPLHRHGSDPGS
# Procedure: Experimental Example 2: Safety Test
# The effect of test compounds on hERG potassium channel were determined using Predictor™ hERG Fluorescence Polarization Assay at concentrations of 3, 10, and 30 μM.
# JAK3 = JAK3 (Homo sapiens (Human), UniProt P52333); assay: JAK3 enzymatic inhibition assay (ADP-Glo luminescence); format: biochemical
# Chain of JAK3 (P52333 whole entry): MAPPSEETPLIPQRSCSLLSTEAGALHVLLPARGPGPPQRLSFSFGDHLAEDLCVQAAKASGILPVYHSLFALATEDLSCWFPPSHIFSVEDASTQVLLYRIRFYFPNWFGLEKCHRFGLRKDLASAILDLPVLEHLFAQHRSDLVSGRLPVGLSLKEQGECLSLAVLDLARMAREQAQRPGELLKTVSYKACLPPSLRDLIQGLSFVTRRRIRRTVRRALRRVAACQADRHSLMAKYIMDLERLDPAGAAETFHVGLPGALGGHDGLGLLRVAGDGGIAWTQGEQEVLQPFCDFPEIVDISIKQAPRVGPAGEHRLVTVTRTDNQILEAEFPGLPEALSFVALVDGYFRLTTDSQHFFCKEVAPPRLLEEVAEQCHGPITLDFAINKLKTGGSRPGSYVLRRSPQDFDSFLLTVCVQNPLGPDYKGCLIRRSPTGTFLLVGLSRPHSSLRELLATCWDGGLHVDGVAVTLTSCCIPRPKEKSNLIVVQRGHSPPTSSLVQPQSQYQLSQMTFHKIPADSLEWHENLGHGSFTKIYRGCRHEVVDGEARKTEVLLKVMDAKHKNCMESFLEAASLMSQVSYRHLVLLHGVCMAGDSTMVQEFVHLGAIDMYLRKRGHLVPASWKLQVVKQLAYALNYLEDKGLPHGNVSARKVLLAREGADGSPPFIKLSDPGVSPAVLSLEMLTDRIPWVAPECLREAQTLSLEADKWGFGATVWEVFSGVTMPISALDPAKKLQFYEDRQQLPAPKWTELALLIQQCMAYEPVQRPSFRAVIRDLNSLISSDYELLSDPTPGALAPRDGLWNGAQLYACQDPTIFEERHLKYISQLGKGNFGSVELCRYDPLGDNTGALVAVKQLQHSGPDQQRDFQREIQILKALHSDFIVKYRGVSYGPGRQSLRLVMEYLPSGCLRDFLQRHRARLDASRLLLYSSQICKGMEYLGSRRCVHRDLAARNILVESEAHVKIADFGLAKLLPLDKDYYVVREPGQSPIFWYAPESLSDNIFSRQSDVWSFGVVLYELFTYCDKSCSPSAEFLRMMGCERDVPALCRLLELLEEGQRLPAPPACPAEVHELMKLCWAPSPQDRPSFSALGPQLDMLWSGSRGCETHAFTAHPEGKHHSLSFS
# Description: (§2) Experimental Example 1: JAK1, JAK2, JAK3 and TYK2 Enzymatic Inhibition Assay
# TYK2 = TYK2 (Homo sapiens (Human), UniProt P29597); assay: TYK2 enzymatic inhibition assay (LanthaScreen TR-FRET); format: biochemical
# Chain of TYK2 (P29597 whole entry): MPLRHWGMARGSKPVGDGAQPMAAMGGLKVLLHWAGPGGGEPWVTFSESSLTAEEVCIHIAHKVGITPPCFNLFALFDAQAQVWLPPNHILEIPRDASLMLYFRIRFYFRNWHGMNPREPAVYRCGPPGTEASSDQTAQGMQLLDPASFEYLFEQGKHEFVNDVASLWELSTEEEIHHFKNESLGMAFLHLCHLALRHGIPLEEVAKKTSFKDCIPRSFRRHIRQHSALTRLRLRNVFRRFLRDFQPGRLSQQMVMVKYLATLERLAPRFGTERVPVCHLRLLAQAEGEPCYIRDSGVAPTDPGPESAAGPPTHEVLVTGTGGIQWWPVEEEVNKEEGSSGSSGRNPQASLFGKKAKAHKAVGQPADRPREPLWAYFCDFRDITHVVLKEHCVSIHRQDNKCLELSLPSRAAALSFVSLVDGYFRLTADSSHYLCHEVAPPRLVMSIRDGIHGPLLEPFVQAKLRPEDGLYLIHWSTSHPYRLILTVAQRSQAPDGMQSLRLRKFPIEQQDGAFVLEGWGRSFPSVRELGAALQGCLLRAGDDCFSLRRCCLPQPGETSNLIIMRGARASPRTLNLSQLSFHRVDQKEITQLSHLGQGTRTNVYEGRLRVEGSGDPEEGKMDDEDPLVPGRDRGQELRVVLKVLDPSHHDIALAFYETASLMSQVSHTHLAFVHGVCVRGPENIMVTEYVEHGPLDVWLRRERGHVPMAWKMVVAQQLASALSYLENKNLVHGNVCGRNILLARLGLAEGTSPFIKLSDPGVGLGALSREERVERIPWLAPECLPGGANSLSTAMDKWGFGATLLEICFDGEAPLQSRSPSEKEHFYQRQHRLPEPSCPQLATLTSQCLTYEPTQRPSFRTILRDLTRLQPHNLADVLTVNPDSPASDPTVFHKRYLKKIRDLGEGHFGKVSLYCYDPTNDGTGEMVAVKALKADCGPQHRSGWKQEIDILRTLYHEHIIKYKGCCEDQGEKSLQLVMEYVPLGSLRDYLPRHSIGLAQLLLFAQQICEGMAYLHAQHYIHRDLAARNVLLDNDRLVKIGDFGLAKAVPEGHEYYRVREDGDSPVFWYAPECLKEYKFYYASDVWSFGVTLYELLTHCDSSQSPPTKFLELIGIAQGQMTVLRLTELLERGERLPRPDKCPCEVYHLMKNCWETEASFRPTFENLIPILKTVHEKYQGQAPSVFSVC
# Procedure: as §2
# As for the TYK2 enzyme, Tb-anti-pSTAT1 was added, and incubation at room temperature was performed.
# [1] = Pharmacokinetic study in rats, intravenous (IV) administration; format: in vivo; conditions: male, SD, rat, plasma, IV administration at 1 mg/kg, 0-24 h
# Procedure: Experimental Example 3: Pharmacokinetic Studies
# To study the pharmacokinetic characteristics of test compounds, the test compounds were administrated by intravenous (IV) and gavage (PO) routes to male SD rats. The dosage for IV administration was 1 mg/kg, and that for PO administration was 0.5-5 mg/kg. The vehicle is 10% DMSO: 10% solutol: 80% physiological saline, or 5% DMSO: 5% solutol: 90% physiological saline, or 10% DMSO: 60% PEG: 30% physiological saline. Blood was collected at various time points after administration. Plasma samples were analyzed by LC-MS/MS after protein precipitation process with acetonitrile.
SMILES,IC50 (JAK1) [nM],IC50 (JAK2) [nM],IC50 (hERG potassium channel) [nM],further results
"CCS(=O)(=O)N1CC(CC#N)(n2cc(-c3c(F)cnc4[nH]ccc34)cn2)C1 [Compound 52-HCl, 2-(1-(ethylsulfonyl)-3-(4-(5-fluoro-1H-pyrrolo[2,3-b]pyridin-4-yl)-1H-pyrazol-1-yl)azetidin-3-yl)acetonitrile Hydrochloride Salt]",–,–,–,IC50 (JAK2; Hydrochloride Salt): 0.35 nM
"CCCS(=O)(=O)N1CC(CC#N)(n2cc(-c3c(C#N)cnc4[nH]ccc34)cn2)C1 [Compound 40, 4-(1-(3-(cyanomethyl)-1-(propylsulfonyl)azetidin-3-yl)-1H-pyrazol-4-yl)-1H-pyrrolo[2,3-b]pyridine-5-carbonitrile]",0.97,2.24,–,–
"CCCS(=O)(=O)N1CC(CC#N)(n2cc(-c3ccnc4[nH]ccc34)cn2)C1 [Compound 23, 2-(3-(4-(1H-pyrrolo[2,3-b]pyridin-4-yl)-1H-pyrazol-1-yl)-1-(propylsulfonyl)azetidin-3-yl)acetonitrile]",2.41,0.89,> 30000,–
"CCS(=O)(=O)N1CC(CC#N)(n2ccc(-c3c(C#N)cnc4[nH]ccc34)c2)C1 [Compound 17, 4-(1-(3-(cyanomethyl)-1-(ethylsulfonyl)azetidin-3-yl)-1H-pyrrol-3-yl)-1H-pyrrolo[2,3-b]pyridine-5-carbonitrile]",1.13,0.93,> 30000,–
"CCS(=O)(=O)N1CC([C@H](C)C#N)(n2cc(-c3ncnc4[nH]ccc34)cn2)C1 [Compound 12-2, (S)-2-(3-(4-(7H-pyrrolo[2,3-d]pyrimidin-4-yl)-1H-pyrazol-1-yl)-1-(ethylsulfonyl)azetidin-3-yl)propanenitrile]",–,1.81,> 30000,IC50 (JAK3): 10 to 30 nM; IC50 (TYK2): ~30 nM
"CS(=O)(=O)N1CC(CC#N)(n2cc(-c3c(C#N)cnc4[nH]ccc34)cn2)C1 [Compound 2, 4-(1-(3-(cyanomethyl)-1-(methylsulfonyl)azetidin-3-yl)-1H-pyrazol-4-yl)-1H-pyrrolo[2,3-b]pyridine-5-carbonitrile]",0.17,0.42,> 30000,–
"N#CCC1(n2cc(-c3ccnc4[nH]ccc34)cn2)CN(S(=O)(=O)N2CCCC2)C1 [Compound 35, 2-(3-(4-(1H-pyrrolo[2,3-b]pyridin-4-yl)-1H-pyrazol-1-yl)-1-(pyrrolidin-1-ylsulfonyl)azetidin-3-yl)acetonitrile]",1.46,1.4,> 30000,IC50 (JAK3): > 30 nM; IC50 (TYK2): > 30 nM
"CC1(S(=O)(=O)N2CC(CC#N)(n3cc(-c4ccnc5[nH]ccc45)cn3)C2)CC1 [Compound 31, 2-(3-(4-(1H-pyrrolo[2,3-b]pyridin-4-yl)-1H-pyrazol-1-yl)-1-((1-methylcyclopropyl)sulfonyl)azetidin-3-yl)acetonitrile]",0.72,1.23,> 30000,AUC(0-t) [1]: 540 ng·h/mL; IC50 (JAK3): 23.6 nM
"CN(C)S(=O)(=O)N1CC(CC#N)(n2cc(-c3c(C#N)cnc4[nH]ccc34)cn2)C1 [Compound 34, 3-(4-(5-cyano-1H-pyrrolo[2,3-b]pyridin-4-yl)-1H-pyrazol-1-yl)-3-(cyanomethyl)-N,N-dimethylazetidine-1-sulfonamide]",0.8,1.66,–,–
"CCS(=O)(=O)N1CC(CC#N)(n2cc(-c3c(Cl)cnc4[nH]ccc34)cn2)C1 [Compound 50-HCl, 2-(3-(4-(5-chloro-1H-pyrrolo[2,3-b]pyridin-4-yl)-1H-pyrazol-1-yl)-1-(ethylsulfonyl)azetidin-3-yl)acetonitrile Hydrochloride Salt]",–,–,–,IC50 (JAK2; Hydrochloride Salt): 0.62 nM
"CCS(=O)(=O)N1CC(CC#N)(n2cc(-c3ccnc4[nH]ccc34)c(C)n2)C1 [Compound 13, 2-(1-(ethylsulfonyl)-3-(3-methyl-4-(1H-pyrrolo[2,3-b]pyridin-4-yl)-1H-pyrazol-1-yl)azetidin-3-yl)acetonitrile]",2.89,1.44,> 30000,IC50 (JAK3): > 30 nM; IC50 (TYK2): ~30 nM
"N#CCC1(n2cc(-c3ccnc4[nH]ccc34)cn2)CN(S(=O)(=O)C2CC2)C1 [Compound 26, 2-(3-(4-(1H-pyrrolo[2,3-b]pyridin-4-yl)-1H-pyrazol-1-yl)-1-(cyclopropylsulfonyl)azetidin-3-yl)acetonitrile]",0.46,0.37,> 30000,–
"CC1(S(=O)(=O)N2CC(CC#N)(n3cc(-c4c(C#N)cnc5[nH]ccc45)cn3)C2)CC1 [Compound 1, 4-(1-(3-(cyanomethyl)-1-((1-methylcyclopropyl)sulfonyl)azetidin-3-yl)-1H-pyrazol-4-yl)-1H-pyrrolo[2,3-b]pyridine-5-carbonitrile]",0.78,1.98,> 30000,–
"CN(C)S(=O)(=O)N1CC(CC#N)(n2cc(-c3ccnc4[nH]ccc34)cn2)C1 [Compound 14, 3-(4-(1H-pyrrolo[2,3-b]pyridin-4-yl)-1H-pyrazol-1-yl)-3-(cyanomethyl)-N,N-dimethylazetidine-1-sulfonamide]",1.3,0.5,> 30000,–

# Further lines, with some results ahead:
IC50 (JAK1) [nM],IC50 (JAK2) [nM],SMILES,IC50 (hERG potassium channel) [nM],further results
5.66,1.4,"CCS(=O)(=O)N1CC(CC#N)(n2cc(-c3ccnc4[nH]ccc34)c(Cl)n2)C1 [Compound 48, 2-(3-(3-chloro-4-(1H-pyrrolo[2,3-b]pyridin-4-yl)-1H-pyrazol-1-yl)-1-(ethylsulfonyl)azetidin-3-yl)acetonitrile]",> 30000,IC50 (CYP1A2): > 10 µM; IC50 (CYP3A4): > 10 µM; IC50 (CYP2D6): > 10 µM
3.52,1.76,"CCS(=O)(=O)N1CC(CC#N)(n2cc(C)c(-c3ncnc4[nH]ccc34)c2)C1 [Compound 56, 2-(1-(ethylsulfonyl)-3-(3-methyl-4-(7H-pyrrolo[2,3-d]pyrimidin-4-yl)-1H-pyrrol-1-yl)azetidin-3-yl)acetonitrile]",–,–
1.95,3.93,"N#CCC1(n2cc(-c3c(C#N)cnc4[nH]ccc34)cn2)CN(S(=O)(=O)CCC(F)(F)F)C1 [Compound 44, 4-(1-(3-(cyanomethyl)-1-((3,3,3-trifluoropropyl)sulfonyl)azetidin-3-yl)-1H-pyrazol-4-yl)-1H-pyrrolo[2,3-b]pyridine-5-carbonitrile]",–,–
1.85,1.11,"CCS(=O)(=O)N1CC([C@H](C)C#N)(n2cc(-c3c(C#N)cnc4[nH]ccc34)cn2)C1 [Compound 45-2, (S)-4-(1-(3-(1-cyanoethyl)-1-(ethylsulfonyl)azetidin-3-yl)-1H-pyrazol-4-yl)-1H-pyrrolo[2,3-b]pyridine-5-carbonitrile]",> 30000,IC50 (JAK3): 10 to 30 nM; IC50 (TYK2): ~30 nM
–,0.67,"CCS(=O)(=O)N1CC(CC#N)(n2cc(-c3c(Cl)cnc4[nH]ccc34)cn2)C1 [Compound 50, 2-(3-(4-(5-chloro-1H-pyrrolo[2,3-b]pyridin-4-yl)-1H-pyrazol-1-yl)-1-(ethylsulfonyl)azetidin-3-yl)acetonitrile]",> 30000,IC50 (CYP1A2): > 10 µM; IC50 (CYP3A4): > 10 µM; IC50 (CYP2D6): > 10 µM
–,0.4,"CCS(=O)(=O)N1CC(CC#N)(n2cc(-c3c(F)cnc4[nH]ccc34)cn2)C1 [Compound 52, 2-(1-(ethylsulfonyl)-3-(4-(5-fluoro-1H-pyrrolo[2,3-b]pyridin-4-yl)-1H-pyrazol-1-yl)azetidin-3-yl)acetonitrile]",> 30000,IC50 (CYP1A2): > 10 µM; IC50 (CYP3A4): > 10 µM; IC50 (CYP2D6): > 10 µM
–,1.21,"CCS(=O)(=O)N1CC(CC#N)(n2cc(-c3ncnc4[nH]ccc34)c(C)n2)C1 [Compound 49, 2-(1-(ethylsulfonyl)-3-(3-methyl-4-(7H-pyrrolo[2,3-d]pyrimidin-4-yl)-1H-pyrazol-1-yl)azetidin-3-yl)acetonitrile]",> 30000,IC50 (CYP1A2): > 10 µM; IC50 (CYP3A4): > 10 µM; IC50 (CYP2D6): > 10 µM
1.66,3.22,"CCS(=O)(=O)N1CC(C(C)C#N)(n2cc(-c3c(C#N)cnc4[nH]ccc34)cn2)C1 (centres unmarked) [Compound 45, 4-(1-(3-(1-cyanoethyl)-1-(ethylsulfonyl)azetidin-3-yl)-1H-pyrazol-4-yl)-1H-pyrrolo[2,3-b]pyridine-5-carbonitrile]",–,–
1.65,1.17,"CCS(=O)(=O)N1CC([C@@H](C)C#N)(n2cc(-c3c(C#N)cnc4[nH]ccc34)cn2)C1 [Compound 45-1, (R)-4-(1-(3-(1-cyanoethyl)-1-(ethylsulfonyl)azetidin-3-yl)-1H-pyrazol-4-yl)-1H-pyrrolo[2,3-b]pyridine-5-carbonitrile]",> 30000,IC50 (JAK3): 10 to 30 nM; IC50 (TYK2): ~30 nM
